Values joined by “and” are separate entries in the source; they are usually repeats but may differ in a detail not shown here. Equal values may be shown once. Each block holds one molecule with its values, some of them ahead of it.
System: 598228-144-R-J1-PDC complex spheroid viability
Experiment: Anticancer human tumor 598228-144-R-J1-PDC patient-derived serous endometrial adenocarcinoma cell line growth inhibition [GQUAD]
Settings: for viability, T/C: stronger effect = lower value
From the text: DNA G-quadruplex Stabilizer Agents in Combinations in Complex Spheroids
A high-throughput screen of multi-cell type tumor spheroids was designed to identify active combinations of DNA G-quadruplex stabilizer agents and targeted small molecules. Complex spheroids include a stromal component modeled by human endothelial cells (HUVEC) and fibroblasts modeled by human mesenchymal stem cells (MSCs). The concentration ranges selected for each drug and investigational agent were based upon clinically achievable concentrations if the clinical Cmax of the agent was known.
Compounds. The drugs and investigational agents: pidnarulex (CX-5461; NSC782164), APTO-253 (NSC789042), BRACO-19 (NSC847499), peposertib (NSC802822), ceralasertib (NSC780249), elimusertib (NSC800525), camonsertib (NSC841442), AZD-1390 (NSC803789), olaparib (NSC753686), talazoparib (NSC767125), ART-558 (NSC835418), sotorasib (NSC818433), MRTX-1133 (NSC836407), SN-38 (NSC673596), topotecan (NSC609699), etoposide (NSC141540), doxorubicin (NSC123127), gemcitabine (NSC613327), 5-fluorouracil (NSC19893), paclitaxel (NSC125973), vemurafenib (NSC761431), panobinostat (NSC761190), R-306465 (JNJ-16241199; NSC773264), adavosertib (NSC754352), TP-3654 (NSC805149), carboplatin (NSC241240), KSQ-4279 (NSC840948), and staurosporine (NSC755774) were obtained from the National Cancer Institute (NCI) Developmental Therapeutics Program Chemical Repository (34). The FDA-approved anticancer drug set is available from the NCI Developmental Therapeutics Program. […] The stock solutions were prepared in dimethyl sulfoxide (DMSO, Sigma-Aldrich, St. Louis, MO, cat. D2650) at 800-fold the tested concentration and stored at -70 degrees C prior to their use. All drugs and investigational agents were tested over a range starting from a high concentration at or near the clinical Cmax and decreasing in half-log increments. If the clinical Cmax for an agent had not been determined, the highest concentration tested was 10 microM.
2.3 Cell Culture. All cells were maintained in an incubator at 37 degrees C and 5% CO2 with 95% humidity. The PDC lines were cultured according to standard operating procedures established by the NCI PDMR. All PDCs were thawed and cultured in Matrigel-coated flasks prepared with a working solution of 1X Ham's F-12 nutrient mix, without supplementation (Invitrogen, cat. 11765054), 100 U/mL penicillin-streptomycin (Invitrogen, cat. 15140122), and 2.5% Matrigel (Corning Inc., cat. 354248) for the first three passages. The 857933-349-R-J2-PDC line was cultured in 6C/Colon 1B media, which includes advanced DMEM/F-12 (Thermo Fisher Scientific, cat. 12634028), 10 mM HEPES (Thermo Fisher Scientific, cat. 15630080), 1X GlutaMAX supplement (Thermo Fisher Scientific, cat. 35050061), 0.1 mg/mL primocin (InvivoGen, cat. ant-pm-2), 10% defined fetal bovine serum, heat inactivated (HyClone Laboratories Inc., cat. SH30070.03HI), 50% L-WRN conditioned media (ATCC, cat. CRL-3276), 1.25 mM N-Acetyl-L-cysteine (Sigma-Aldrich, cat. A9165), 10 mM nicotinamide (Sigma-Aldrich, cat. N0636), 1X B-27 supplement (Thermo Fisher Scientific, cat. 17504044), 1X N-2 supplement (Thermo Fisher Scientific, cat. 17502048), 10 microM Y-27632 dihydrochloride (Tocris Bioscience, cat. 1254), and 50 ng/mL human EGF recombinant protein (Thermo Fisher Scientific, cat. PHG0311). The 485176-168-R4-J1-PDC line was cultured in Panc media, which includes all 6C/Colon 1B media components plus 100 ng/mL human FGF-10 (Thermo Fisher Scientific, cat. 100-26), 500 nM SB-431542 (Selleckchem, cat. S1067), and gastrin (Tocris, cat. 3006).
[…]
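Further: spheroids exposed to the agents for one week before reading.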
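Wherever viability, T/C is given: percent of vehicle DMSO control viability so 100% = untreated growth.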

IC50 (curve of compound): 3600 nM and 1800 nM and 3150 nM
Structure (SMILES): COc1ccc([C@@H](O)c2cc(-c3ncnc4cc(N5CCOCC5)ccc34)c(F)cc2Cl)nn1
viability, T/C (compound 0.0316 µM): 97.8% and 102% and 84.3%
viability, T/C (compound 0.1 µM): 90% and 101% and 85.3%
viability, T/C (compound 0.316 µM): 89.9% and 67.4% and 82.6%
viability, T/C (compound 1 µM): 74.7% and 62.1% and 82.8%
viability, T/C (compound 3.16 µM): 52.1% and 42.8% and 49.9%
viability, T/C (compound 10 µM): 32.1% and 30% and 30.5%

Structure (SMILES): CC1COCCN1c1cc(C2(O)CC3CCC(C2)O3)c2cnn(-c3ccn[nH]3)c2n1 (stereo unspecified) + CN(C)c1ccc(Nc2c3ccc(NC(=O)CCN4CCCC4)cc3nc3cc(NC(=O)CCN4CCCC4)ccc23)cc1
IC50 (curve of first compound, second compound 0.0316 µM): 72.8 nM
IC50 (curve of first compound, second compound 0.1 µM): 90 nM
IC50 (curve of first compound, second compound 0.316 µM): 130 nM
IC50 (curve of first compound, second compound 1 µM): 162 nM
IC50 (curve of first compound, second compound 3.16 µM): 146 nM
IC50 (curve of first compound, second compound 10 µM): 46 nM
viability, T/C (second compound 0.0316 µM, first compound 0.0316 µM): 58.7%
viability, T/C (second compound 0.0316 µM, first compound 0.1 µM): 45.8%
viability, T/C (second compound 0.0316 µM, first compound 0.316 µM): 34.9%
viability, T/C (second compound 0.0316 µM, first compound 1 µM): 32.9%
viability, T/C (second compound 0.0316 µM, first compound 3.16 µM): 25.2%
viability, T/C (second compound 0.0316 µM, first compound 10 µM): 13.9%
viability, T/C (second compound 0.1 µM, first compound 0.0316 µM): 60.5%
viability, T/C (second compound 0.1 µM, first compound 0.1 µM): 49.3%
viability, T/C (second compound 0.1 µM, first compound 0.316 µM): 34.3%
viability, T/C (second compound 0.1 µM, first compound 1 µM): 32.7%
viability, T/C (second compound 0.1 µM, first compound 3.16 µM): 28.2%
viability, T/C (second compound 0.1 µM, first compound 10 µM): 12.7%
viability, T/C (second compound 0.316 µM, first compound 0.0316 µM): 74.8%
viability, T/C (second compound 0.316 µM, first compound 0.1 µM): 49%
viability, T/C (second compound 0.316 µM, first compound 0.316 µM): 36.5%
viability, T/C (second compound 0.316 µM, first compound 1 µM): 37.1%
viability, T/C (second compound 0.316 µM, first compound 3.16 µM): 28.6%
viability, T/C (second compound 0.316 µM, first compound 10 µM): 15.4%
viability, T/C (second compound 1 µM, first compound 0.0316 µM): 68.5%
viability, T/C (second compound 1 µM, first compound 0.1 µM): 44.6%
viability, T/C (second compound 1 µM, first compound 0.316 µM): 44.3%
viability, T/C (second compound 1 µM, first compound 1 µM): 35.6%
viability, T/C (second compound 1 µM, first compound 3.16 µM): 36.1%
viability, T/C (second compound 1 µM, first compound 10 µM): 12.4%
viability, T/C (second compound 3.16 µM, first compound 0.0316 µM): 61.8%
viability, T/C (second compound 3.16 µM, first compound 0.1 µM): 55.9%
viability, T/C (second compound 3.16 µM, first compound 0.316 µM): 35.1%
viability, T/C (second compound 3.16 µM, first compound 1 µM): 39.6%
viability, T/C (second compound 3.16 µM, first compound 3.16 µM): 25.6%
viability, T/C (second compound 3.16 µM, first compound 10 µM): 9.44%
viability, T/C (second compound 10 µM, first compound 0.0316 µM): 58.5%
viability, T/C (second compound 10 µM, first compound 0.1 µM): 34.5%
viability, T/C (second compound 10 µM, first compound 0.316 µM): 27.6%
viability, T/C (second compound 10 µM, first compound 1 µM): 23.7%
viability, T/C (second compound 10 µM, first compound 3.16 µM): 26.6%
viability, T/C (second compound 10 µM, first compound 10 µM): 3.21%

IC50 (curve of compound): > 10000 nM
Structure (SMILES): Cc1cccc(N(C)C(=O)C2C(O)CCN2c2nc(C)cc(C(F)(F)F)c2C#N)c1 (stereo unspecified)
viability, T/C (compound 0.0316 µM): 108% and 89.4% and 98.2%
viability, T/C (compound 0.1 µM): 92.7% and 78% and 99.4%
viability, T/C (compound 0.316 µM): 97.2% and 122% and 88.8%
viability, T/C (compound 1 µM): 99.8% and 91.5% and 99.9%
viability, T/C (compound 3.16 µM): 97.1% and 94.7% and 111%
viability, T/C (compound 10 µM): 93.6% and 88.1% and 102%
